Type in all cases: cell-based
Series [1] deals with c-MYC. The series is described as follows: c-MYC protein expression by Western blot in HeLa cells. The protocol:
FIG. 11. (Left) Analysis of the expression levels of c-MYC (light colored bars) and ALAS1 (dark colored bars) by means of qRT-PCR. HeLa cells were incubated for 16 h or 48 h with 100 μM of complex 1 (RuCl), TMPyP4, or 50 μM of 5-FU. The levels are expressed in relation to the expression levels of the GAPDH gene. The values are the average of three experiments, and the error bars indicate standard error. (Right) Analysis of the expression of c-MYC by means of Western blot. HeLa cells were incubated for 16 h with 100 μM of complex 1 (RuCl) and then lysed, and c-MYC was detected by means of SDS-PAGE followed by Western blot with an anti-MYC antibody (right, upper panel). The relative amount of protein in two independent experiments was quantified by means of densitometry (right, lower panel). The data is represented as the factor of change with respect to untreated controls. The error bars indicate the standard deviation of the factor of change with respect to untreated controls.
FIG. 14. (Left) Transcription levels of c-MYC determined by means of qRT-PCR in the dark (black bars) or after irradiation (60 min, white bars). […] The expression values are relative to the expression of the GAPDH gene. (Right) Expression levels of c-MYC protein determined by means of Western blot in the presence or absence of complex 5. The relative amount of protein with respect to the expression levels of β-actin was quantified by means of densitometry (lower panel). The experimental method was similar to the one described in FIG. 11.
FIG. 15. […] The light colored bars correspond to expression levels of c-MYC under irradiation conditions whereas the dark colored bars correspond to darkness conditions. […] The relative levels of protein with respect to the expression levels of β-actin were quantified by means of densitometry.
HeLa cells were incubated to a confluence of 50% in the presence of the indicated concentrations of the assayed agents for 16 h. […] The c-MYC protein was detected by means of an anti-MYC antibody (Santa-Cruz Biotechnologies). […]

Series [2] concerns Panc185 and PancA6L cells. The series is described as follows: Annexin V / DAPI staining of PDAC cells. As for the experimental part: FIG. 21. Cytotoxic effects of RuH2O on PDAC sphere cultures. Light micrographs and annexin-V staining of Panc185 and PancA6L cells after 72 hours of treatment with 100 μM of RuH2O.
FIG. 24. Induction of apoptosis in PDAC cells. Annexin-V staining of PDAC cells treated for 48 hours with 100 or 250 μM of RuH2O.
The effect of 100 μM of RuH2O on cultures rich in CSC was confirmed at the microscopic level and by measuring annexin V staining. […] Cell viability determined by the percentage of DAPI negative cells dropped by 50%.
To rule out the possibility that the effects mentioned above arise as a result of unspecific cytotoxic effects, adherent cultures (low in CSC) were treated for 48 hours with a single dose of RuH2O (100 or 250 μM) and their subsequent clonogenicity, self-renewal, and tumorigenicity was checked. […] The treated and untreated cells were then trypsinized and the percentage of apoptotic cells was analyzed.

The subject of series [3] is c-MYC. The series is described as follows: c-MYC protein expression by Western blot in PDAC cells. As for the experimental part:
FIG. 17. Effects of complex 2 (RuH2O) on pancreatic ductal adenocarcinoma (PDAC) cells.
FIG. 18. […] Western blot analysis of the expression of c-MYC in cultures 24 and 48 h after treatment with RuH2O.
On one hand, the inventors analyzed if complex 2 may increase c-MYC expression in pancreatic CSCs, and on the other hand, if the increase in c-MYC expression would negatively affect the CSC phenotype, for example, CSC self-renewal capacity. […] After having achieved a substantial increase in c-MYC expression, it was then analyzed if the CSC self-renewal capacity was affected. To that end, briefly the PDAC cells were pre-treated twice with complex 2 (RuH2O) at a concentration of 100 and 250 μM before establishing sphere cultures in […] as described in Cioffi M (Cioffi M et al. 2015 Gut 12: 1936-1948). The spheres were again treated on day 4 after sphere formation.
Background: Immunoblotting shows a protein as a band on a membrane.

On to [Ru(terpy) (bpy)H2O]^2+ [complex 2], for which the c-MYC protein expression result was “active both in the dark and upon being irradiated” in the series on c-MYC [1] (in the dark); “active both in the dark and upon being irradiated” in the series with c-MYC [1] (under irradiation with light); “expression of c-MYC increased after treatment” in the series with c-MYC [3] (PDAC cells, 100 and 250 μM, 6, 12 or 24 hours); “increases the expression of c-MYC” with c-MYC [3] (PDAC cells, 100 and 250 μM, 6, 12 or 24 hours, listed as Complex 2); “increased c-MYC protein expression” in the series on c-MYC [3] (Panc185 and PancA6L cells, 100 μM, 24 hours after treatment). Further, the “percentage of apoptotic cells” value in series [2] (adherent cultures, 100 or 250 μM, 48 hours) was “increase in the percentage of apoptotic cells was not observed”. For the same substance, the “appearance of spheres, annexin V staining” value in series [2] (spheres, 100 μM, 72 hours) was “visually smaller and apoptotic”. In addition, the “drop of cell viability (percentage of DAPI negative cells)” value in series [2] (spheres, 100 μM, 72 hours) stood at 50%. Besides, the c-MYC protein levels result in the series with c-MYC [3] (Panc185 and PancA6L cells, 48 hours after treatment) is given as “significant decrease in c-MYC protein levels”.

The values are drawn from patent publication US11471467B2, “Ruthenium complexes for treating cancer which comprises cancer stem cells” (UNIVERSIDADE DE SANTIAGO DE COMPOSTELA, priority 2016, dated 2022).
